Results: article PMC7319089, “Multi-Component Comparative Pharmacokinetics in Rats After Oral Administration of Fructus aurantii Extract, Naringin, Neohesperidin, and Naringin-Neohesperidin” (Frontiers in Pharmacology, 2020)
Like-named read-outs stand apart in the source and are kept apart here.

Columns and labels:
[1] = Stability of the analytes in rat plasma (QC samples); type: in vitro ADME; conditions: n = 6; for Long-term Stability RE: -20 °C for one month; for Short-term Stability RE: room temperature 24 h; for Free–thaw Stability RE: three cycles -20 °C/room temperature
Protocol: The QC samples were assayed under several different conditions to evaluate the stability of the compounds in rat plasma. For the short-term stability, fresh plasma samples were kept at room temperature for 24 h before the sample preparation. After keeping the samples at room temperature for 24 h, post-preparation stability was tested. Freeze-thaw cycles (-20 °C/room temperature) stability were […] treated at -20°C for freezing-room temperature melting three times (repeated freezing and thawing three times). In each freeze-thaw cycle, the samples were frozen and stored at -20 °C for 24 h, and subsequently thawed at room. To evaluate the long-term stability of QC plasma samples, following storage at -20 °C for one month. The stability data were acceptable when the bias was within ±15% of the actual value ([Yuan et al., 2017]).

[2] = Pharmacokinetics in SD rats after oral administration of FA extract, NA, NHE or NA-NHE (UPLC-MS/MS of plasma, DAS 3.1); type: in vivo, Sprague-Dawley (SD) rats; conditions: for MRT last: read-out: MRT(0-t); for MRT inf: read-out: MRT(0-∞); for Vd/F: read-out: Vz/F; for Cmax: plasma after β-glucuronidase/sulfatase hydrolysis; for AUC(0-t): read-out: AUC(0-t); for Shape of the plasma concentration-time profile: oral administration, naringin and neohesperidin determined as naringenin and hesperetin
Protocol: The 20 μl of β-glucuronidase and 15 μl of sulfatase were added into 50 μl of plasma sample. After vortexed for 30 s, the mixture was incubated at 37°C for 2 h in a water bath, then placed in ice water for 5 min to terminate the reaction ([Xu et al., 2019]). IS solution (20 µl, 5 μg/ml) and acetonitrile (1.0 ml) were added into the mixture and vortexed for 2 min. […] Rats were randomly divided into the following four groups (6 rats in each group): naringin (NA), neohesperidin (NHE), naringin-neohesperidin (NA-NHE), and FA extract group. The oral administration doses were selected according to the literatures ([Tong et al., 2012]; [Yang et al., 2012]; [Committee of National Pharmacopoeia of RP China, 2015]; [Wang et al., 2018]; [Zhang et al., 2018]; [Chen et al., 2019]), the contents of the five components in FA, and the preliminary experiments. The specific doses were as follows: […] The rats had free access to water during the experiment. The blood samples were then immediately centrifuged at 4,000 rpm for 10 min. The plasma was frozen and stored at −80°C until analysis. The plasma concentration of the studied compounds was determined according to the daily calibration curve.

[3] = parameters: method as in Wang et al., 2018; conditions: after orally administering 30 g/kg FA decoction; ref Wang et al., 2018; cited from earlier work
[4] = high QC concentration (3880 / 2946 / 2470 / 836 / 422.4 ng/mL)
[5] = low QC concentration (3.88 / 2.946 / 2.47 / 0.836 / 0.4224 ng/mL)
[6] = middle QC concentration (77.6 / 58.92 / 49.4 / 16.72 / 8.44 ng/mL)
[7] = Sprague-Dawley, rat, plasma, male SD rats, oral FA extract 10.8 g/kg of the original medicinal material, statistical moment parameters, n = 6
[8] = Sprague-Dawley, rat, male SD rats, oral FA extract 10.8 g/kg of the original medicinal material, statistical moment parameters, n = 6
[9] = male SD rats, oral FA extract 10.8 g/kg of the original medicinal material, two-compartment model parameters, n = 6
[10] = male, Sprague-Dawley, rat, plasma, po, 10.8 g/kg, male SD rats, oral FA extract 10.8 g/kg of the original medicinal material, statistical moment parameters, n = 6
[11] = male, Sprague-Dawley, rat, plasma, po, 10.8 g/kg, male SD rats, oral FA extract 10.8 g/kg of the original medicinal material, statistical moment parameters, n = 6, read-out: CLz/F (converted)
[12] = male, Sprague-Dawley, rat, plasma, po, 10.8 g/kg, male SD rats, oral FA extract 10.8 g/kg of the original medicinal material, statistical moment parameters, n = 6, read-out: Tmax
[13] = male, Sprague-Dawley, rat, plasma, po, 10.8 g/kg, male SD rats, oral FA extract 10.8 g/kg of the original medicinal material, statistical moment parameters, n = 6, read-out: t1/2z (converted)
[14] = male, Sprague-Dawley, rat, plasma, po, 10.8 g/kg, male SD rats, oral FA extract 10.8 g/kg of the original medicinal material, two-compartment model parameters, n = 6
[15] = male, Sprague-Dawley, rat, plasma, po, 10.8 g/kg, male SD rats, oral FA extract 10.8 g/kg of the original medicinal material, two-compartment model parameters, n = 6, read-out: CL/F (converted)
[16] = male, Sprague-Dawley, rat, plasma, po, 10.8 g/kg, male SD rats, oral FA extract 10.8 g/kg of the original medicinal material, two-compartment model parameters, n = 6, read-out: t1/2β (converted)
[17] = male SD rats, oral FA extract 10.8 g/kg of the original medicinal material, statistical moment parameters, n = 6

| SMILES | Long-term Stability RE [1, 4] | Long-term Stability RE [1, 5] | Long-term Stability RE [1, 6] | Short-term Stability RE [1, 4] | Short-term Stability RE [1, 5] | Short-term Stability RE [1, 6] | Free–thaw Stability RE [1, 4] | Free–thaw Stability RE [1, 5] | Free–thaw Stability RE [1, 6] | MRT last [2, 7] | MRT inf [2, 7] | Vd/F [2, 7] | Cmax [2, 8] | Ka [2, 9] | V1/F [2, 9] | t1/2α [2, 9] | AUC(0-inf) [2, 14] | AUC(0-t) [2, 14] | CL/F [2, 15] | half-life [2, 16] | further results |
| --- | --- | --- | --- | --- | --- | --- | --- | --- | --- | --- | --- | --- | --- | --- | --- | --- | --- | --- | --- | --- | --- |
| COc1ccc2ccc(=O)oc2c1CC(O)C(C)(C)O (centres unmarked) [Meranzin hydrate, meranzin hydrate] | 6.85% | 7.62% | 3.19% | 7.43% | 4.71% | 1.55% | 7.63% | 5.77% | 0.71% | 5.17 ± 0.34 h | 6.57 ± 0.95 h | 9.36 ± 3.56 L/kg | 3360 ± 91 ng/mL | 2.05 ± 0.46 h⁻¹ | 4.30 ± 1.14 L/kg | 6.61 ± 0.86 h | 12300 ± 2590 ng·h/mL | 12100 ± 2760 ng·h/mL | 7.5 mL/min/kg | 6.91 ± 1.05 h | AUC(0-inf) [2, 10]: 11600 ± 2760 ng·h/mL; AUC(0-t) [2, 10]: 11100 ± 2820 ng·h/mL; CL/F [2, 11]: 16.2 mL/min/kg; Tmax [2, 12]: ~1 h; half-life [2, 13]: > 6.5 h |
| C[C@@H]1O[C@@H](O[C@H]2[C@H](Oc3cc(O)c4c(c3)O[C@H](c3ccc(O)cc3)CC4=O)O[C@H](CO)[C@@H](O)[C@@H]2O)[C@H](O)[C@H](O)[C@H]1O [NA, naringin] |  |  |  |  |  |  |  |  |  |  |  |  |  |  | 0.82 ± 0.06 L/kg |  | 20900 ± 3010 ng·h/mL | 20700 ± 3010 ng·h/mL | 13.8 mL/min/kg | 2.65 ± 0.18 h | Shape of the plasma concentration-time profile ([2]; rats): Double-peak phenomenon; Detection in rat plasma [3]: could not been detected |
| COc1ccc2ccc(=O)oc2c1CC1OC1(C)C (centres unmarked) [Meranzin, meranzin] | -7.37% | -10.98% | -13.52% | -2.81% | -6.25% | -8.40% | -6.01% | -9.71% | 11.07% | 4.82 ± 0.76 h | 6.39 ± 2.22 h | 477 ± 70.2 L/kg | 27.7 ± 2.85 ng/mL | 2.18 ± 0.97 h⁻¹ | 5.91 ± 1.12 L/kg | 6.39 ± 0.11 h | 87.8 ± 22.9 ng·h/mL | 84.4 ± 22.5 ng·h/mL | 1200 mL/min/kg | 6.48 ± 0.38 h | Tmax [2, 17]: 0.92 ± 0.13 h; t1/2z [2, 17]: 6.52 ± 0.63 h; AUC(0-inf) [2, 10]: 80.4 ± 15.5 ng·h/mL; AUC(0-t) [2, 10]: 76.9 ± 14.7 ng·h/mL; CL/F [2, 11]: 2310 mL/min/kg; Tmax [2, 12]: ~1 h; half-life [2, 13]: > 6.5 h |
| O=C1C[C@@H](c2ccc(O)cc2)Oc2cc(O)cc(O)c21 [Naringenin, naringenin] | -9.76% | -0.84% | 12.09% | -13.49% | -3.02% | 14.81% | -10.94% | -4.36% | 8.14% | 9.71 ± 0.56 h | 9.75 ± 0.56 h | 2.06 ± 0.29 L/kg | 2450 ± 226 ng/mL | 1.94 ± 0.37 h⁻¹ | 0.82 ± 0.06 L/kg | 2.63 ± 0.39 h | 20900 ± 3010 ng·h/mL | 20700 ± 3010 ng·h/mL | 13.8 mL/min/kg | 2.65 ± 0.18 h | AUC(0-inf) [2, 10]: 19700 ± 2630 ng·h/mL; AUC(0-t) [2, 10]: 19600 ± 2620 ng·h/mL; CL/F [2, 11]: 9.33 mL/min/kg; Tmax [2, 12]: 9.33 ± 1.03 h; half-life [2, 13]: 2.56 ± 0.17 h; Shape of the plasma concentration-time profile ([2]; rats): double peaks |
| COc1ccc(-c2cc(=O)c3c(OC)c(OC)c(OC)c(OC)c3o2)cc1OC [Nobiletin, nobiletin] | -3.36% | 5.83% | 6.71% | 0.80% | 7.01% | 7.89% | -1.72% | 2.21% | 10.46% | 4.23 ± 0.5 h | 4.8 ± 0.99 h | 151 ± 47 L/kg | 130 ± 4.78 ng/mL | 0.69 ± 0.25 h⁻¹ | 6.80 ± 1.24 L/kg | 4.40 ± 0.34 h | 473 ± 63.1 ng·h/mL | 472 ± 62.6 ng·h/mL | 134 mL/min/kg | 4.49 ± 0.57 h | AUC(0-t) ([2]; Sprague-Dawley, rat, plasma, po, 10.8 g/kg, rats, oral FA extract, unit inferred): 473 ± 119 ng·h/mL; AUC(0-inf) [2, 10]: 480 ± 117 ng·h/mL; AUC(0-t) [2, 10]: 473 ± 119 ng·h/mL; CL/F [2, 11]: 393 mL/min/kg; Tmax [2, 12]: 1.17 ± 0.26 h; half-life [2, 13]: 2.1 ± 0.37 h |
| COc1ccc([C@@H]2CC(=O)c3c(O)cc(O)cc3O2)cc1O [Hesperetin, hesperetin] | -7.81% | 5.03% | -8.58% | -13.50% | 4.10% | -9.20% | -12.68% | 7.78% | -10.70% | 11.4 ± 0.37 h | 11.7 ± 0.42 h | 12.2 ± 1.67 L/kg | 425 ± 11.1 ng/mL | 3.17 ± 0.93 h⁻¹ | 7.17 ± 1.40 L/kg | 3.47 ± 0.51 h | 4420 ± 724 ng·h/mL | 4350 ± 705 ng·h/mL | 68.2 mL/min/kg | 3.86 ± 0.32 h | AUC(0-inf) [2, 10]: 4340 ± 326 ng·h/mL; AUC(0-t) [2, 10]: 4300 ± 315 ng·h/mL; CL/F [2, 11]: 41.7 mL/min/kg; Tmax [2, 12]: 9.67 ± 0.82 h; half-life [2, 13]: 3.4 ± 0.46 h; Shape of the plasma concentration-time profile ([2]; rats): double peaks |
